Where two headings read alike, the source gives them in different places.

One series can be described thus: LD50 in mice. The conditions noted are these: mouse, in vivo, HCl salts, read-out: LD₅₀. It is filed as in vivo. The text has this: (§1) The LD₅₀ in mice of (+)-, (-) and [for comparison] There are no significant differences in the toxicity of the tested compounds.
A further series addresses T1, M₁ receptors (Rattus norvegicus, UniProt P08482).
T1 sequence (P08482 1-460): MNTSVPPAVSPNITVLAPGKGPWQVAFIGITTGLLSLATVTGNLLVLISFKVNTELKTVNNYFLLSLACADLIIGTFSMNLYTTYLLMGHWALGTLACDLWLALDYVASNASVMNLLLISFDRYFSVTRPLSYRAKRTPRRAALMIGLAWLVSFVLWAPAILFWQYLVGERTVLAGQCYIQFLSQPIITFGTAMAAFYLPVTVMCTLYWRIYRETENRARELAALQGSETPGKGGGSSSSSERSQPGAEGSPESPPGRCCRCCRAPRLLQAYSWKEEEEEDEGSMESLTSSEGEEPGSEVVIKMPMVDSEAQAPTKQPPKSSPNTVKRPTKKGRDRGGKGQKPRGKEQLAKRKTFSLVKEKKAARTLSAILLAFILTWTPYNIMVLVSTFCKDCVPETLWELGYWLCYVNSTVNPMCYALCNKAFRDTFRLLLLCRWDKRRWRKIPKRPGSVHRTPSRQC
As to the kind of experiment: biochemical. It is filed as binding. The conditions noted are these: for a:c: ratio Ki(3H-PZ):Ki(3H-CD).

The subject of series [1] is isolated guinea pig ileum. Description: Isolated guinea pig ileum induced contraction. Format: cell-based.
Series [2] relates to AF64A and saline-injected rats. As to the kind of experiment: Passive avoidance (step-through) retention in AF64A and saline-injected rats. Format: in vivo, Sprague-Dawley rats. The conditions noted are these: for Retention latency after 72 hours: 0.2mg./kg. per os post-training, cut-off 600 secs., nine rats per group; for net latencies of AF64A-treated groups compared with the group treated with double distilled water: p < 0.005 for (-)-, p < 0.05 for (±)-cis. The text has this: Ethylcholine aziridinium ion (hereinafter denoted AF64A) is a selective presynaptic cholinergic neurotoxin, which on intracerebroventricular injection in rats induces persistent cholinergic hypofunction that mimics the cortical and hippocampal cholinegic deficiency and the cognitive impairments reported in SDAT. Accordingly, the possibility of reversal of the AF64A-induced effects by (-)- and [for comparison] (±)-cis-2-methylspiro(1,3-oxathiolan-5,3′)quinuclidine in the passive avoidance task was studied. In this experiment, the results of which are reported in Table 4, we investigated the effect of these substances (0.2mg./kg/., per os) on the retention after 72 hours of an inhibitory learning (passive avoidance-step through) task in AF64A and saline-injected rats, using a post-training drug treatment paradigm. The surgery carried out on the test animals (Sprague-Dawley rats raised by Charles River) was similar to that described in our prior published European Patent Application No. 0205247. The behavioral studies were performed one month after surgery.
The behavioral testing procedure comprised two phases, 1 and 2. In a pretest training procedure each rat was individually placed in a small lighted front compartment of a two-compartment box. After a 60 secs. familiarization/adaptation period, the door separating the two compartments was opened and a clock activated. The rat's latency to enter the large dark compartment of the box (to step-through) was measured. Immediately following entry into the dark compartment, the rat was subjected to an inescapable scrambled foot shock applied to the grid floor (0.6mA for 3 secs.). Sixty secs. after the termination of the shock, at the end of the training procedure, the rat was removed from the dark compartment and double distilled water, (-)- and (±)-cis-2-methylspiro(1,3-oxathiolan-5,3′)quinuclidine were administered per os. Rats were then returned to their home cage. Retention of the passive avoidance task was measured […]. after training by again placing the rat in the lighted front compartment, and after a 60 secs. adaptation period, measuring the latency to enter the dark compartment. The test session ended when a rat entered the dark compartment or after 600 secs. had elapsed. […]

In another series the test system is mice. As to the kind of experiment: LD50 in mice. The conditions noted are these: HCl salts. It is filed as in vivo.
From the text: as §1

Series [3] has as its system muscarinic receptors. It is filed as binding, rat. The conditions noted are these: for Ki: rat forebrain homogenates, mean ± spread (n), Ki = IC50 ÷ (1 + C/KD), read-out: Ki(^3H-QNB).
In series [4] the target is muscarinic receptors. Description: Displacement of 3H-cis-dioxolane (3H-CD) from rat forebrain homogenates. It is filed as binding. For orientation: Displacement assays read how much labelled ligand stays bound in the presence of the test substance.
The mark [5] stands for this setting: index of M1 versus M2 selectivity.

With `CC1OC2(CS1)CN1CCC2CC1` (racemic) [(±)-cis-isomer, (±)-cis-2-methylspiro(1,3-oxathiolan-5,3')quinuclidine], the LD50 in “LD50 in mice” (female mice) amounted to 40.8 mg/kg; in “LD50 in mice” (male mice) it was 45 mg/kg. The “a:b” value on M₁ receptors is given as 0.10. In addition, the Ki (in general, the dissociation constant of the complex between target and ligand, obtained from inhibition or displacement) at M₁ receptors (Ki(^3H-PZ)) was found to be 0.6 µM. On M₁ receptors (setting [5]), the “a:c” value is 1.4. In addition, the type of activity result in series [1] was “agonist”. Moreover, the “Retention latency after 72 hours” value in series [2] (AF64A-treated rats) is reported as 407.9 (±72.1) seconds; in series [2] (saline-treated rats), 478.2 (±65.7) seconds. For the same compound, in series [2] (AF64A-treated rats), the “net latencies of AF64A-treated groups compared with the group treated with double distilled water” value is “significantly longer”.
For the compound `CC1OC2(CS1)CN1CCC2CC1` (racemic) [(±)-trans-isomer, (±)-trans-2-methylspiro(1,3-oxathiolan-5,3')quinuclidine], the “a:b” value on M₁ receptors was determined as 0.59. In addition, at M₁ receptors (index of M1 versus M2 selectivity, listed as 3), the “a:c” value is given as 8.1. Also, the Ki on M₁ receptors (read-out: Ki(^3H-PZ)) was found to be 14.6 ± 2.9 µM. Also, the type of activity result in series [1] is on record as “agonist”.
As to `CC1OC2(CS1)CN1CCC2CC1` (single isomer, unassigned; (+)) [(+)-cis-isomer, (+)-cis-2-methylspiro(1,3-oxathiolan-5,3')quinuclidine], the LD50 in the series “LD50 in mice” (female mice) amounted to 45 mg/kg; in “LD50 in mice” (male mice) it was 39.1 mg/kg. At M₁ receptors (Ki(^3H-PZ)), the affinity, expressed as Ki, was 9.6 µM. Moreover, in series [1], the type of activity result was “inactive as agonist”.
With `CC1OC2(CS1)CN1CCC2CC1` (single isomer, unassigned; (-)) [(-)-cis-isomer, (-)-cis-2-methylspiro(1,3-oxathiolan-5,3')quinuclidine], the results for the LD₅₀ in the series with mice (female mice) and in the series on mice (male mice) were 40 mg/kg and 35 mg/kg, respectively. At M₁ receptors (Ki(^3H-PZ)), this compound yielded a Ki of 1.1 µM. Besides, the “times more potent in ³H-QNB displacement than its racemate” value in the series on muscarinic receptors [3] (relative to (±)-cis-isomer) was determined as 2.2. In addition, the type of activity entry in series [1] is reported as “agonist”. Also, the entries for the “Retention latency after 72 hours” value in series [2] (AF64A-treated rats) and in series [2] (saline-treated rats) were 563.5 (±23.6) seconds and 474 (±61.3) seconds, respectively. Besides, the “net latencies of AF64A-treated groups compared with the group treated with double distilled water” value in series [2] (AF64A-treated rats) is recorded as “significantly longer”.
Regarding `CC(=O)OCC[N+](C)(C)C` [Acetylcholine], the EC50 (commonly the concentration needed to bring the measured effect to its halfway point) in series [1] (Cavia porcellus, induced contraction of isolated guinea pig ileum) came to 50 nM.
In the case of `C[N+](C)(C)CC#CCOC(=O)Nc1cccc(Cl)c1` [McN-A-343], the “a:b” value on M₁ receptors was 0.35. Besides, the Ki at M₁ receptors (Ki(^3H-PZ)) stood at 4.9 µM; at muscarinic receptors [3] it was 14.2 ± 1.41 µM; on muscarinic receptors [4] (mean ± spread (n), Ki = IC50 ÷ (1 + C/KD)), 400 ± 100 nM. Further, the “a:c” value on M₁ receptors (setting [5]) came out at 12.25.
For `O=C1CCCN1CC#CCN1CCCC1` [Oxotremorine], the results for the Ki at M₁ receptors (Ki(^3H-PZ)), on muscarinic receptors [3] and on muscarinic receptors [4] (footnote *: expressed in M x 10^-10) were 0.6 µM, 1.7 ± 0.3 µM and 0.96 ± 0.42 nM, respectively. Further, the “a:c” value on M₁ receptors (setting [5]) was determined as 625. Besides, the “a:b” value on M₁ receptors (ratio Ki(3H-PZ):Ki(3H-QNB), index of M1 versus M2 selectivity) amounted to 0.35.

For the origin of these results see EP0303391B1, “Optical isomers of a spiroquinuclidine derivative” (State of Israel Represented by the Prime Minister's Office …, priority 1987, dated 1989).
